Measurements published in patent publication US20090074774A1, “Fgfr binding peptides” (priority 2004, published 2009).
“Also recorded” adds a separate entry of the source.

Key:
[1] = test system: rat cerebellar granular neurons (CGNs); experiment: Stimulation of neurite outgrowth of cerebellar granule neurons in culture; assay type: cell-based; conditions: for effect of FGFR inhibitor on neurite outgrowth stimulated by EFL: CGNs; for stimulation of neurite outgrowth: CGNs from 7-day-old rats, peptide treatment 24 h, culture without substrate
Procedure: B. Neurite outgrowth stimulated by EFL is inhibited by SU5402, an inhibitor of fibroblast growth factor receptor 1 (FGFR1). Results from four independent experiments are in all cases expressed as a percentage±SEM, with non-treated control cells set at 100%. *P<0.05, **P<0.01, ***P<0.001, compared with control. Paired student's t-test. For experiments, CGNs from 7-old-day rats were treated with the peptides for 24 hr. The cultures were fixed in 4% paraformaldehyde, followed by blocking with 1% BSA and then immunostained with rabbit anti-rat GAP-43 primary antibodies, and then with secondary Alexa Fluor®488 goat anti-rabbit antibodies.
Cerebellar granule neurons (CGN) were prepared from postnatal day seven Wistar rats largely as previously described (Neiiendam et al, (2004) J. Neurochem. 91(4):920-35). Cerebellar tissue was dissected in modified Krebs-Ringer solution kept on ice, and treated as described for the hippocampal neurons above. All cell cultures were incubated at 37° C. in a humidified atmosphere containing 5% CO2. All animals were handled in accordance with the national guidelines for animal welfare.
Dissociated cells were plated at a density of 10,000 cells/cm^2 on uncoated 8-well permanox Lab-Tek chamber slides in Neurobasal medium supplemented with 0.4% (w/v) bovine serum albumin (BSA; Sigma-Aldrich), 2% (v/v) B27 Neurobasal supplement, 1% (v/v) glutamax, 100 U/ml penicillin, 100 μg/ml streptomycin and 2% 1 M HEPES (all from Gibco, BRL). Peptide solutions without or with inhibitors of various signal transduction pathways were added to a total volume of 300 μl/cm^2, and the slides were incubated at 37° C. After 24 hours, the neurons were fixed with 4% (v/v) formaldehyde for 20 minutes and thereafter immunostained using primary rabbit antibodies against GAP-43 and Alexa Fluor secondary goat anti-rabbit antibodies. Images of at least 200 neurons for each group in each individual experiment were obtained systematically by using computer assisted fluorescence microscopy as previously described (Ronn et al., 2000 op. cit.). Briefly, a Nikon Diaphot inverted microscope with a Nikon Plan 20× objective (Nikon, Tokyo, Japan) coupled to a video camera (Grundig Electronics, Germany) was used for recordings. The same software package as described above for the dopaminergic neurite outgrowth assay was used to process the recorded images.

[2] = test system: rat cerebellar granular neurons; experiment: Survival assay of cerebellar granule neurons (apoptosis induced by low KCl); assay type: cell-based; conditions: for survival of CGN in culture: peptides as dendrimers (CDLd, EFLd, ABLd), apoptosis induced by 5 mM KCl, two days; for survival effect compared with the C3 peptide and GDNF: peptides as dendrimers, FIG. 2A
Procedure: The effect of the peptides is compared to the effect of glia-derived neurotrophic factor (GDNF) and dendrimeric form of the C3 peptide (C3d). […] Paired student's t-test.
Primary cultures of CGN were plated at a density of 100,000 cells/cm^2 on poly-L-lysine coated 8-well permanox slides in Neurobasal-A medium (Gibco, BRL) supplemented with 2% (v/v) B27, 0.5% (v/v) glutamax, 100 U/ml penicillin, 100 μg/ml streptomycin and KCl, making the final concentration of KCl in the medium 40 mM. 24 hours after plating, cytosine-β-D-arabinofuranoside (Ara-C; Sigma-Aldrich) was added to a final concentration of 10 μM to avoid proliferation of glial cells, after which the neurons were allowed to differentiate for further six days at 37° C. Apoptotic cell death was induced by washing twice and changing the medium to Basal Medium Eagle (BME; Gibco BRL) supplemented with 1% (v/v) glutamine, 100 U/ml penicillin and 100 μg/ml streptomycin, 3.5 g D-glucose/l and 1% (v/v) sodium pyruvate (Gibco BRL) together with various concentrations of peptide. Thereby the concentration of potassium in the cultures was reduced to 5 mM KCl. Two days after induction of apoptosis, the cells were fixed with 4% formaldehyde and stained with Hoechst 33258 as described for the survival assay employing hippocampal neurons.
The assay is performed as described by D'Mello et al., (1993) (Proc Natl Acad Sci U S A. 90:10989-93).

rats = experiment: Social Recognition Test (SRT); assay type: in vivo, rat; conditions: subcutaneous 4 mg/kg; 1 h and 24 h after administration; paired t-test
Procedure: Results from 8-9 animals expressed as a percentage±SEM. Paired t-test (*P<0.05 and ***P<0.001); B Time spent with social investigation at first meeting (T1) and second meeting (T2) 24 h after peptide/vehicle administration. Results from 9 animals expressed as a percentage±SEM. Paired t-test (*P<0.05).
The animals were evaluated using the SRT, 1 hour and 24 hours after subcutaneous injection of the peptide or vehicle.
Habituation session: On the day before the social recognition test (SRT), one habituation session was performed under similar conditions as the test session for adaptation to the experimental room, time when the test was performed, test cage, and contact with juvenile rats (a different juvenile was used during habituation session and social recognition test). The inter-trial interval for the habituation session was of 1 hour.
Experimental session: Each experimental session consisted of an initial and a test trial separated by an inter-trial (retention) interval of 2 hours.
Initial trial. Adult animals were individually housed 1 hour before testing in the test cage. For testing, a juvenile was placed into the cage and the social investigation by the adult rat was measured cumulatively for 4 min. Sniffing and grooming of body parts, anogenital sniffing and close following were scored. […]

adult male Wistar rats = experiment: Contextual Fear Conditioning Test (CFC); assay type: in vivo, rat; conditions: peptide injected immediately after training
Procedure: The rats were handled for 120 seconds every day for 3 days preceding the first day of the experiment. On day 1 (training), the rats received a 1-second shock (unconditioned stimuli) each minute for two minutes. Animals were injected immediately after training with 5 μl EFL, ABL, CDL or control peptide, or the vehicle. Each treatment group consisted of 11-14 rats. In total, […] animals were evaluated. […] Each rat was rated as either “freezing” or “active”, every 2 seconds, using a time-sampling procedure.

[3] = test system: caspase3-like activity in cultures of rat cerebellar granular neurons; experiment: Caspase-3-like activity assay in cerebellar granule neurons; assay type: cell-based; conditions: monomeric peptides; for apoptosis-associated Caspase-3-like activity: cells in culture medium depleted of KCl (5 mM); for effect on Caspase-3-like activity compared with high KCl (40 mM): culture medium depleted of KCl
Procedure: The effect of the peptide is compared to the effect of high concentration of kCl. *P<0.05, **P<0.01, paired student's t-test
Primary cultures of CGN were prepared as described above and apoptosis in cells was induced as described above.
For the caspase-3 assay, cultured CGN were dislodged, collected by centrifugation and lyzed. Aliquots of lysed cells were used for the assay which was performed according to the manufacturer's instructions (Promega, USA),

[4] = biological target: T1, recombinant FGFR1 (immobilized FGFR Ig modules 2, 3) (Homo sapiens, UniProt P11362); experiment: Binding of fragments of NCAM F3, 1 to FGFR1 by surface plasmon resonance; conditions: 25° C., pH 7.4
T1 construct: The FGFR Ig modules 2, 3 were immobilized on a sensor chip CM5; made in house; host or cells: Drosophila S2 cells (Invitrogen)
T1 sequence (P11362 150-365 limits assumed): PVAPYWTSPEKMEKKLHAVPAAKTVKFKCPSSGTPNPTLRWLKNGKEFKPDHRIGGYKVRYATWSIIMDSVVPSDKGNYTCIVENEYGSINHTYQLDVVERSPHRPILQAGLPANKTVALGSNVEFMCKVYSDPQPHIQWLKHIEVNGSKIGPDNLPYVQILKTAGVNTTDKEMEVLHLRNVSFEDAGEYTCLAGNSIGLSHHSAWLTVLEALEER
Excerpt: The binding is given as a response difference (Resp. Diff.) between the binding to the sensor chip with the immobilized FGFR1 modules and a blank sensor chip (unspecific binding). Abbreviations: AB-A strand-loop-B strand (corresponds to the ABL peptide of SEQ ID NO: 2); CD-C strand-loop-D strand (corresponds to the CDL peptide of SEQ ID NO: 1); EF-E strand-loop-F strand (corresponds to the EFL peptide of SEQ ID NO: 5); BC-B strand-loop-C strand of F3, 1 module of NCAM; DE-D strand-loop-E strand of F3, 1 module of NCAM; FG-F strand-loop-G strand of F3, 1 module of NCAM.
The FGFR Ig module 3 and modules 2, 3 were expressed in Drosophila S2 cells (Invitrogen, USA) according to the manufacturer's instructions. All the proteins were purified by affinity chromatography using Ni^2+-NTA resin (Qiagen, USA) and/or ion exchange chromatography and gel filtration.
Binding analysis was performed using a BIAcoreX instrument (Biosensor AB) at 25° C. using 10 mM sodium phosphate pH 7.4, 150 mM NaCl as running buffer. The flow-rate was 5 μl/min. Data were analysed by non-linear curve-fitting using the manufacture's software. The FGFR Ig modules 2, 3 were immobilized on a sensor chip CM5 using amine coupling kit (Biosensor AB) as follows: 1) the two halves of the chip (designated Fc1 and Fc2) were activated by 20 μl activation solution; 2) the protein was immobilized on Fc1 using 12 μl 20 μg/ml protein in 10 mM sodium phosphate buffer pH 6.0; 3) Fc1 and Fc2 were blocked by 35 μl blocking solution. Binding of various compounds to the immobilized FGFR modules was studied as follows: A compound was injected simultaneously into Fc1 (with the immobilized FGFR modules) and Fc2 (with nothing immobilized). The curve representing unspecific binding of the compound to the surface of Fc2 was subtracted from the curve representing binding of the protein to the immobilized FGFR modules and the surface of Fc1. The resulting curve was used for analysis. The results of the binding experiments are present on FIG. 4.

[5] = tested on day 8 after conditioning, placebo/control 32%

Row | Molecule | effect of FGFR inhibitor on neurite outgrowth stimulated by EFL [1] | effect of FGFR inhibitor on neurite outgrowth stimulated by EFL ([1]; listed as SU5402) | survival of CGN in culture [2] | survival effect compared with the C3 peptide and GDNF [2] | difference between T1 and T2 of the same animal (presence of social memory) (rats) | stimulation of neurite outgrowth [1] | time of freezing (adult male Wistar rats; [5]) | apoptosis-associated Caspase-3-like activity [3] | effect on Caspase-3-like activity compared with high KCl (40 mM) [3] | direct binding to FGFR (SPR) [4] | time of freezing (adult male Wistar rats; tested on day 1 after conditioning, placebo/control 40.0%)
1 | Cc1c[nH]c(/C=C2\C(=O)Nc3ccccc32)c1CCC(=O)O [SU 5402] | abolished | inhibited | – | – | – | – | – | – | – | – | –
2 | KAEWKSLGEEAWHSK (CDL peptide, fragment of NCAM F3,1) [C strand-loop-D strand fragment of NCAM F3, 1 module] | – | – | significantly promote survival | higher | significant differences between T1 and T2 | strong stimulators; also recorded: stimulate neurite outgrowth | 42.5% | inhibit | comparable | capable of direct binding | –
3 | SIDRVEPYSSTAQVQFD (ABL peptide, fragment of NCAM F3,1) [A strand-loop-B strand fragment of NCAM F3, 1 module] | – | – | does not influence survival | – | – | inactive | – | – | – | capable of direct binding | –
4 | TIMGLKPETRYAVR (TIMGLKPETRTYAVR; EFL peptide, fragment of NCAM F3,1) [E strand-loop-F strand fragment of NCAM F3, 1, used as positive control] | – | – | significantly promote survival | higher | significant differences between T1 and T2 | strong stimulators; also recorded: stimulate neurite outgrowth | 42.5% | inhibit | comparable | capable of direct binding | approximately 50.3%
